What follows are molecules tested against T1, Progestin Receptor (Oryctolagus cuniculus, UniProt P06186) (assay: Progestin Receptor Binding (competitive binding, 3H-promegestone, rabbit uterus receptor preparation)). Details: 3H-promegestone displacement, 4° C., 18 h.
T1 construct: The high speed supernatant fraction was used as the receptor preparation; from tissue; host or cells: uterus of New Zealand rabbits, 200,000×g supernatant (cytosol)
T1 sequence (P06186 1-930): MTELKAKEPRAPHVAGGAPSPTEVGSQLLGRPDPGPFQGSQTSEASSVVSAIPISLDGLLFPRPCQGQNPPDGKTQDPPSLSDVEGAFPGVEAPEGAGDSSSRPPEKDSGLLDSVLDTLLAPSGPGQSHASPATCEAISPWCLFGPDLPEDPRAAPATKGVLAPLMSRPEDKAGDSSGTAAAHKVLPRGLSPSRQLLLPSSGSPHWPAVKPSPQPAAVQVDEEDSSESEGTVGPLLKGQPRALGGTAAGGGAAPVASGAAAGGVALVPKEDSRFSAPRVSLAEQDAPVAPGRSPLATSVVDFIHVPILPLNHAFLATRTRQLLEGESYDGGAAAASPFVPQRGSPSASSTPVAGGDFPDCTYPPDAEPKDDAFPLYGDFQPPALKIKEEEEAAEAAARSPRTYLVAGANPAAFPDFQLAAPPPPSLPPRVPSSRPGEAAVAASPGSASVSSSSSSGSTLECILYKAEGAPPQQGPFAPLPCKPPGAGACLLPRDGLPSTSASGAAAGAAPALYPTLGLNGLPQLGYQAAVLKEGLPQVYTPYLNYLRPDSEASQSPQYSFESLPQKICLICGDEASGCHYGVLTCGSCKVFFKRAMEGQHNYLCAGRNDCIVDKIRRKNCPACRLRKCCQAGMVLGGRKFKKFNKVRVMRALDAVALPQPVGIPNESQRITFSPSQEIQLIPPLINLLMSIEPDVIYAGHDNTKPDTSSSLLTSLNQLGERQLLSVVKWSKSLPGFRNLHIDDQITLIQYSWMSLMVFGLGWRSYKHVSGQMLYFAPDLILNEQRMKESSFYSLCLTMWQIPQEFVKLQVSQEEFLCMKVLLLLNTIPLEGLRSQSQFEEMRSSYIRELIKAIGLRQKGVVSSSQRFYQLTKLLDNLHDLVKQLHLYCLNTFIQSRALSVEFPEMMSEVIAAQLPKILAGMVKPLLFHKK
Design: species or system New Zealand rabbits
Procedure: Progestin Receptor Binding
The procedure used was essentially that of J. L. McGuire, C.
Uteri from New Zealand rabbits (1.5 to 2.5 kg) were placed in a cold buffer A (0.01 mol Tris-HCl, pH 8.0, 0.001 mol EDTA, 0.25 mol sucrose). The uteri were minced, washed and homogenized in cold buffer A. The homogenate (2 g wet tissue/mL buffer) was centrifuged at 200,000×g for 1 h at 4° C. The high speed supernatant fraction was used as the receptor preparation.
A competitive binding assay was performed by mixing 3H-promegestone with the receptor preparation and adding a known amount of unlabeled compound. This mixture was incubated at 4° C. for 18 h. The compounds bound to the receptor were separated from those which were free in solution using dextran coated charcoal and the amount of isotope bound to the receptor was determined by scintillation counting. The extent of the compound's interaction with the receptor is measured as the percent reduction in the total isotope bound caused by the unlabeled test compound as compared to the control levels. The receptor screen consists of measuring the reduction in the total isotope bound caused by the unlabeled test compound at […] final concentrations.
For “4b,5,6,11,11a,12-Hexahydro-7-methoxy-6,11a-dimethyldibenz-[a,f]azulene [Compound 109]”, the IC50 was 1.25 µM.
“6,11,11a,12-Tetrahydro-8-carboxy-9-methoxy-6,11a-dimethyldibenz[a,f]azulene [Compound 80]” showed an IC50 of 10 µM.
For `COc1ccc2c(c1)C[C@@]1(C)Cc3ccccc3C1=C[C@H]2C` (relative stereo) [Compound 3], the IC50 was 0.04 µM.
For `COc1ccc2c(c1)C[C@@]1(C)Cc3ccccc3[C@H]1C[C@H]2C` (relative stereo) [Compound 8], the IC50 was 0.476 µM.
`COc1ccc2c(c1)C[C@@]1(C)Cc3ccccc3[C@H]1[C@H](O)[C@H]2C` (relative stereo) [Compound 13, 6,11a-Dimethyl-5-hydroxy-9-methoxy-4b,5,6,11,11a,12-hexahydrodibenz[a,f]azulene (α--OH)] gave an IC50 of 0.337 µM.
`COc1ccc2c(c1)C[C@@]1(C)Cc3ccccc3[C@@H]1C[C@H]2C` (relative stereo) [Compound 16] showed an IC50 of 0.353 µM.
For `CC[C@]12Cc3ccccc3C1=C[C@@H](C)c1ccc(OC)cc1C2` (relative stereo) [Compound 17], the IC50 was 0.16 µM.
`CC[C@]12Cc3cc(OC)ccc3C1=C[C@@H](C)c1ccc(OC)cc1C2` (relative stereo) [Compound 22] showed an IC50 of 0.421 µM.
In the case of `COc1cc2c(cc1C(C)=O)[C@H](C)C=C1c3ccccc3C[C@]1(C)C2` (relative stereo) [Compound 44], the IC50 is reported as 0.19 µM.
Molecule `COc1ccc2c(c1)C[C@@]1(C)Cc3cc(F)ccc3[C@H]1C[C@H]2C` (relative stereo) [Compound 47] has an IC50 of 0.025 µM.
`COc1cccc2c1[C@H](C)C[C@@H]1c3ccccc3C[C@]1(C)C2` (relative stereo) [Compound 54] was tested, and the IC50 was 0.118 µM.
`COc1ccc2c(c1)C[C@@]1(C)Cc3ccccc3C1[C@@H](O)[C@H]2C` (relative stereo) [Compound 64, 6,11a-Dimethyl-5-hydroxy-9-methoxy-4b,5,6,11,11a,12-hexahydrodibenz[a,f]azulene (β-OH)] was tested, and the IC50 was 1.68 µM.
In the case of `CCC[C@@]12Cc3cc(OC)ccc3CC[C@@H]1c1ccc(OC)cc1C2` (relative stereo) [Compound 71], the IC50 is reported as 0.439 µM.
In the case of `CCC[C@@]12Cc3cc(OC)ccc3CC[C@@H]1c1ccc(F)cc1C2` (relative stereo) [Compound 72], the IC50 is reported as 0.1 µM.
In the case of `CCC[C@]12Cc3cc(F)ccc3[C@H]1CCc1c(cccc1OC)C2` (relative stereo) [Compound 73], the IC50 is reported as 0.1 µM.
Molecule `CCC[C@]12Cc3ccccc3C1=C[C@@H](C)c1ccc(NC(C)=O)cc1C2` (relative stereo) [Compound 84] has an IC50 of 0.161 µM.
Work on `COc1cc2c(c(OC)c1)[C@H](C)C[C@@H]1c3ccccc3C[C@]1(C)C2` (relative stereo) [Compound 86] yielded an IC50 of 1.67 µM.
`CC(=O)Oc1cc2c(c(OC(C)=O)c1)[C@H](C)C[C@@H]1c3ccccc3C[C@]1(C)C2` (relative stereo) [Compound 87] was tested, and the IC50 was 0.729 µM.
`CCC[C@]12Cc3ccccc3C1=C[C@@H](C)c1ccc(Br)cc1C2` (relative stereo) [Compound 92] was tested, and the IC50 was 0.139 µM.
With `CCC[C@]12Cc3ccccc3C1=C[C@@H](C)c1ccc(I)cc1C2` (relative stereo) [Compound 99] the IC50 was 0.09 µM.
Work on `COc1cccc2c1CC=C1c3ccccc3CC1(C)C2` (stereo not shown) [Compound 1, 7-Methoxy-11a-methyl-6,11,11a,12-tetrahydrodibenz[a,f]azulene] yielded an IC50 of 0.143 µM.
`COc1ccc2c(c1)CC1(C)Cc3ccccc3C1=CC2` (stereo not shown) [Compound 2, 9-Methoxy-11a-methyl-6,11,11a,12-tetrahydrodibenz[a,f]azulene] gave an IC50 of 0.239 µM.
`C[C@@H]1CC2c3ccccc3C[C@]2(C)Cc2cc(O)ccc21` (stereo partly shown) [Compound 12] gave an IC50 of 0.456 µM.
Molecule `COc1ccc2c(c1)CC1(C)Cc3ccccc3C1C(=O)C2C` (stereo not shown) [Compound 14, 6,11a-Dimethyl-9-methoxy-5-oxo-4b,5,6,11,11a,12-hexahydrodibenz[a,f]azulene] has an IC50 of 0.212 µM.
Work on `COc1ccc2c(c1)CC1(C)Cc3cc(OC)ccc3C1C(O)C2C` (stereo not shown) [Compound 19] yielded an IC50 of 0.668 µM.
`CC[C@]12Cc3ccccc3C1C[C@@H](C)c1ccc(OC)cc1C2` (stereo partly shown) [Compound 23] gave an IC50 of 0.419 µM.
With `CC1c2cc([N+](=O)[O-])c(O)cc2CC2(C)Cc3ccccc3C2C1O` (stereo not shown) [Compound 24, 6,11a-Dimethyl-5,9-dihydroxy-8-nitro-4b,5,6,11,11a,12-hexahydrodibenz[a,f]azulene] the IC50 was 0.258 µM.
In the case of `COc1cc2c(cc1[N+](=O)[O-])C(C)C(O)C1c3ccccc3CC1(C)C2` (stereo not shown) [Compound 25, 6,11a-Dimethyl-5-hydroxy-9-methoxy-8-nitro-4b,5,6,11,11a,12-hexahydrodibenz[a,f]azulene], the IC50 is reported as 0.121 µM.
`CC1CC2c3ccccc3CC2(C)Cc2ccccc21` (stereo not shown) [Compound 28, 6,11a,-Dimethyl-4b,5,6,11,11a,12-hexahydrodibenz[a,f]azulene] showed an IC50 of 0.032 µM.
Work on `CCCC12Cc3ccccc3C1=CCc1c(cccc1OC)C2` (stereo not shown) [Compound 29] yielded an IC50 of 0.015 µM.
Molecule `COc1ccc2c(c1)CC1(C)Cc3cc(OC)ccc3C1=CC2` (stereo not shown) [Compound 34, 6,11,11a,12-Tetrahydro-2,9-dimethoxy-11a-methyl-dibenz[a,f]azulene] has an IC50 of 0.425 µM.
In the case of `CCCC12Cc3cc(OC)ccc3CCC1c1ccccc1C2` (stereo not shown) [Compound 35], the IC50 is reported as 0.133 µM.
Work on `CCC12Cc3cc(OC)ccc3CC=C1c1ccc(OC)cc1C2` (stereo not shown) [Compound 37] yielded an IC50 of 2.6 µM.
Molecule `CCCC12Cc3cc(O)ccc3CCC1c1ccccc1C2` (stereo not shown) [Compound 40] has an IC50 of 0.051 µM.
`CC[C@]12Cc3ccccc3C1C[C@@H](C)c1ccc(O)cc1C2` (stereo partly shown) [Compound 46] gave an IC50 of 0.065 µM.
`CCCC12Cc3cc(OC)ccc3C(C)CC1c1ccccc1C2` (stereo not shown) [Compound 48] showed an IC50 of 0.182 µM.
`CCOP(=O)(OCC)Oc1ccc2c(c1)CC1(C)Cc3cc(F)ccc3C1CC2C` (stereo not shown) [Compound 49, 9-(2-Fluoro-6,11,11a,12-tetrahydro-6,11a-dimethyl)-dibenz[a,f]azulenyl diethyl phosphoric acid] gave an IC50 of 0.072 µM.
Molecule `CCCC12Cc3cc(OC(C)=O)ccc3CCC1c1ccccc1C2` (stereo not shown) [Compound 50] has an IC50 of 0.042 µM.
In the case of `CC1CC2c3ccccc3CC2(C)Cc2cc(OCCN(C)C)ccc21` (stereo not shown) [Compound 51], the IC50 is reported as 0.41 µM.
`CCC12Cc3ccccc3C1=CCc1c(cccc1OC)C2` (stereo not shown) [Compound 52] was tested, and the IC50 was 0.068 µM.
With `CC1CC2c3ccc(F)cc3CC2(C)Cc2cc(OCCN(C)C)ccc21` (stereo not shown) [Compound 55, 6,11a-Dimethyl-9-(N,N'-dimethylamino)ethoxy-2-fluoro-4b,5,6,11,11a,12-hexahydro-6,11a-dimethyldibenz[a,f]-azulene] the IC50 was 0.541 µM.
`CCCC12Cc3cc(F)ccc3C1=CCc1c(cccc1OC)C2` (stereo not shown) [Compound 56] showed an IC50 of 0.034 µM.
Work on `CCCC12Cc3cc(OC)ccc3CC=C1c1ccc(F)cc1C2` (stereo not shown) [Compound 57] yielded an IC50 of 0.067 µM.
`COc1cc2c(cc1C(C)=O)C(C)CC1c3ccccc3CC1(C)C2` (stereo not shown) [Compound 61, 8-Acetyl-4b,5,6,11,11a,12-hexahydro-6,11a-dimethyl-9-methoxydibenz[a,f]azulene] was tested, and the IC50 was 0.365 µM.
With `COc1cc2c(cc1[N+](=O)[O-])C(C)CC1c3ccc(F)cc3CC1(C)C2` (stereo not shown) [Compound 65, 6,11a-Dimethyl-2-fluoro-8-nitro-9-methoxy-4b,5,6,11,11a,12-hexahydrodibenz[a,f]azulene 1/4 Hydrate] the IC50 was 0.009 µM.
With `CCCCC12Cc3cc(OC)ccc3CC=C1c1ccccc1C2` (stereo not shown) [Compound 67] the IC50 was 0.185 µM.
Work on `CC1CC2c3ccc(F)cc3CC2(C)Cc2ccccc21` (stereo not shown) [Compound 69, 6,11a-Dimethyl-2-fluoro-4b,5,6,11,11a,12-hexahydrodibenz[a,f]azulene] yielded an IC50 of 0.037 µM.
With `COc1ccc2c(c1)CC1(C)Cc3cc(OC)ccc3C1C(=O)C2` (stereo not shown) [Compound 75] the IC50 was 0.555 µM.
Molecule `COc1ccc2c(c1[N+](=O)[O-])CC1(C)Cc3ccccc3C1C(O[N+](=O)[O-])C2C` (stereo not shown) [Compound 82, 5-(6,11a-Dimethyl-9-methoxy-10-nitro-4b-5,6,11,11a,12-hexahydro)dibenz[a,f]azulenyl nitrate ester] has an IC50 of 0.099 µM.
